The record followed here is ChEMBL document CHEMBL1201862, “PubChem BioAssay data set” (2004).

Experiment [1] concerns the target Induced myeloid leukemia cell differentiation protein Mcl-1 (Homo sapiens, UniProt Q07820). The experiment is described as follows: blockers of MCL1 binding to BIM peptide – biochemical, fluorescence polarization, BIM-BH3 peptide, 1536-well, dose response (AID 2217). Background: In fluorescence polarisation assays a small probe gives low polarisation when free and higher when bound to something large.

Experiment [2] in a line: NIH-3T3 fibroblast cytotoxicity, dose response, cytotoxicity control, cell-based, fluorescence, Alamar Blue, secondary assay (AID 2327).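 Also: NIH-3T3 mouse fibroblasts cultured with fluconazole at 8 µg/mL.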 The format is functional.
Experiment [3] deals with Bcl-2-like protein 1 (Homo sapiens, UniProt Q07817). Description: blockers of BCLXL peptide binding – biochemical, fluorescence polarization, 1536-well, selectivity assay for MCL1 inhibitor project, dose response (AID 2218).
The nature of experiment [4]: fluconazole-exposed Candida albicans growth modulators – fluorescence, retest, confirmation (AID 2467). Format: functional, cell-based.
Experiment [5] can be described thus: viability of PTEN-deleted HCT116 cells – cell-based, HCT116 PTEN knockout, dose response (AID 1047).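 Also: HCT116 colon tumor cells with PTEN knocked out; cells exposed to compound for 60 hours before readout; potency for loss of cell viability measured by luminescence.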 Format: functional.
The nature of experiment [6]: HPDE-C7 pancreatic duct cell viability loss – fluorescence, HTS (AID 430). The format is functional, cell-based. To be noted: Homo sapiens.
Experiment [7] is described as follows: viability of HCT116 lacking mutant beta-catenin – cell-based, human colon tumor, dose response (AID 1045).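 Also: HCT116 colon tumor cells with beta catenin knocked out; cells exposed to compound for 60 hours.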 Format: functional.
The nature of experiment [8]: Trypanosoma cruzi growth suppression in host cells – NIH3T3 host cells, beta-gal luminescence, confirmation (AID 2044).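 Also: intracellular parasites grown in NIH/3T3 mouse fibroblasts as host cells; luminescent beta-galactosidase reporter signal from transgenic T. cruzi replicating inside host cells; inhibitors lower the luminescence signal.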 The format is functional, cell-based.
Experiment [9] is described as follows: viability loss of HPDE-C7K cells – cell-based, fluorescence, HTS, primary screen (AID 431). To be noted: Homo sapiens. Format: functional.
A short description of experiment [10]: NIH3T3 cell viability loss – ATP luminescence, mouse fibroblasts, counter-screen, dose response (AID 2010).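 Also: cells exposed to compound for about 90 hours before reading.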 Format: functional, cell-based. In general terms: The purpose of a counterscreen is to sort out artefacts and off-target activity.
The nature of experiment [11]: microbe, parasite or virus in culture. Format: functional. The settings on record: Mycobacterium tuberculosis.
Experiment [12] is described as follows: HEK-293T cell viability reduction – luminescence, B-cell screen hits, cytotoxicity control for BCR NF-kB inhibitor project, dose response (AID 489021).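 Also: HEK-293T cells carrying an NF-kB luciferase reporter; cells exposed to compound for about 14 hours before viability readout.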 The format is functional, cell-based.
For experiment [13], the target named is T1, Neuropeptide Y receptor type 2 (Homo sapiens, UniProt P49146).
T1 sequence (P49146 whole entry): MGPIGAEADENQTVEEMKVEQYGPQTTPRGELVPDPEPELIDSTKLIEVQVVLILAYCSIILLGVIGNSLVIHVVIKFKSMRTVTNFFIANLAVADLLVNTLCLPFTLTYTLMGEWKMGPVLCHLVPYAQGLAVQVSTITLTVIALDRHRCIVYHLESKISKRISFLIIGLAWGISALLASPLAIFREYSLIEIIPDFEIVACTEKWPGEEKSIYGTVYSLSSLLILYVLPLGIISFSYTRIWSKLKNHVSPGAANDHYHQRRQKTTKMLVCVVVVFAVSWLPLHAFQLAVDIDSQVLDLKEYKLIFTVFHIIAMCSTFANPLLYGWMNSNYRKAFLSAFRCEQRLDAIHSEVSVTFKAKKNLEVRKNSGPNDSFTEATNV
Description: IC50 for human NPY-Y2 blockade – cell-based, counter-screen for NPY-Y1 antagonist project, dose response (AID 1278). The format is functional.

The target of experiment [14] is T2, Rac GTPase-activating protein 1 (Homo sapiens, UniProt Q9H0H5).
T2 sequence (Q9H0H5 whole entry): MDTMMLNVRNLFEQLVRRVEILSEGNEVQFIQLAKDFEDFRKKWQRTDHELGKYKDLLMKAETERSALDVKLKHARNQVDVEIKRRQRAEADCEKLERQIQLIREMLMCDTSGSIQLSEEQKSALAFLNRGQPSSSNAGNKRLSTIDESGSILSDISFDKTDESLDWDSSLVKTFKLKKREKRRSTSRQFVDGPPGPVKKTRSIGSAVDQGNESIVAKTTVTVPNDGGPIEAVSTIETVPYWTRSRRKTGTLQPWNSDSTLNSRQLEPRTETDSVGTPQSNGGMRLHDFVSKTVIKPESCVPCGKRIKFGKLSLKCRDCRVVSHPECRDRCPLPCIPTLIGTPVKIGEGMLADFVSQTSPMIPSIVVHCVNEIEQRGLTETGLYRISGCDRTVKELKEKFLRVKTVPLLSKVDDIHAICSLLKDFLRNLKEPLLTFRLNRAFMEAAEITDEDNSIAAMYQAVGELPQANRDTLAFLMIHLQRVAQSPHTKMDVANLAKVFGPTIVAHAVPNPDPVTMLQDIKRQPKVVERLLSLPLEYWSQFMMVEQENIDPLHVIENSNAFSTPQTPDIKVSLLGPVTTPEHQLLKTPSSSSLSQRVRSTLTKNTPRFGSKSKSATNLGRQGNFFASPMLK
Description: blockers of MgcRacGAP-driven Rac1 GTP hydrolysis – biochemical, ADP Hunter fluorescence, primary and confirmatory, confirmation (AID 624330). The format is functional.

For experiment [15], the target named is T3, Neuropeptide Y receptor type 1 (Homo sapiens, UniProt P25929).
T3 sequence (P25929 whole entry): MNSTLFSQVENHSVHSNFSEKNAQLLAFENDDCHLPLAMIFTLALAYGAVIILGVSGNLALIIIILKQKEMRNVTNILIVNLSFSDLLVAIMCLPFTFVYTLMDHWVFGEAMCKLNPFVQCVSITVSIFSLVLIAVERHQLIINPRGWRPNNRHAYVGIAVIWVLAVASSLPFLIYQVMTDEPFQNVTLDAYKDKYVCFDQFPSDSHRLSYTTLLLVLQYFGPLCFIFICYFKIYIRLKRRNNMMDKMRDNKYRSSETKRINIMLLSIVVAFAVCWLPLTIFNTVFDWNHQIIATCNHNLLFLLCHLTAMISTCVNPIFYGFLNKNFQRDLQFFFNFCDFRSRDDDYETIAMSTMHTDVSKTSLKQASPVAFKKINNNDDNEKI
The experiment is described as follows: IC50 of human NPY-Y1 blockers – cell-based, dose response (AID 1277). Format: functional.

The target of experiment [16] is T4, Sphingosine 1-phosphate receptor 2 (Homo sapiens, UniProt O95136). The experiment is described as follows: Dose Response Cell Based Assay for Agonists of the S1P2 Receptor of Purchased Analogues. [Related pubchem assays: 729, 843, 854, 736 ]. The format is functional.
In experiment [17] the target is T4, Sphingosine 1-phosphate receptor 2. Description: Dose Response Cell-Based Assay for Agonists of the Sphingosine 1-Phosphate Receptor 2 (S1P2): Purchased Analogues. [Related pubchem assays: 1192, 373, 439 ]. Format: functional.
The target of experiment [18] is Sphingosine 1-phosphate receptor 3 (Homo sapiens, UniProt Q99500). The experiment is described as follows: Dose Response Cell-Based Assay for Agonists of the Sphingosine 1-Phosphate Receptor 3 (S1P3): Purchased Analogues. [Related pubchem assays: 373, 439 ]. Format: functional.
Experiment [19] addresses Sphingosine 1-phosphate receptor 1 (Homo sapiens, UniProt P21453). Description: Dose Response Cell-Based Assay for Agonists of the Sphingosine 1-Phosphate Receptor 1 (S1P1): Purchased Analogues. [Related pubchem assays: 1192, 373, 439 ]. Format: functional.
For experiment [20], the target named is Mucolipin-3 (Homo sapiens, UniProt Q8TDD5). Description: Dose response cell-based high-throughput screening assay for agonists of the transient receptor potential channel ML3 (TRPML3). [Related pubchem assays: 1526, 1424, 1448 ]. Format: functional.
For experiment [21], the target named is Ion channel NompC (Danio rerio, UniProt Q7T1G6). The experiment is described as follows: Fluorescence counterscreen assay for TRPML3 agonists: dose response cell-based high-throughput screening assay to identify agonists of the transient receptor potential channel N1 (TRPN1). [Related pubchem assays: 1526, 1424, 1448 ]. The format is functional.
Experiment [22] is described as follows: Luminescence Cell-Based Dose Confirmation HTS to Identify Inhibitors of Platelet Dense Granule Release. [Related pubchem assays: 1663 (Primary HTS), 1678 (Summary of Project)]. Format: functional.
For experiment [23], the target named is Luciferin 4-monooxygenase (Photinus pyralis, UniProt P08659). The experiment is described as follows: inhibition of purified Photinus pyralis luciferase – biochemical, luminescence, dose response (AID 1891).
Experiment [24] can be described thus: Fluorescence Cell-Based Dose Response to Identify Inhibitors of Thrombin Receptor-Activating Peptide SFLLRN-Mediated P-Selectin Induction on Platelets. [Related pubchem assays: 1663 (Primary HTS), 1889 (retest at dose ), 1891 (counterscreen), 1678 (Project Summary)]. The format is functional.
A short description of experiment [25]: A High Throughput Confirmatory Assay used to Identify Novel Compounds that Inhibit Mycobacterium Tuberculosis in the absence of Glycerol. The format is functional.
The target of experiment [26] is T5, Estrogen receptor (Homo sapiens, UniProt P03372).
T5 sequence (P03372 whole entry): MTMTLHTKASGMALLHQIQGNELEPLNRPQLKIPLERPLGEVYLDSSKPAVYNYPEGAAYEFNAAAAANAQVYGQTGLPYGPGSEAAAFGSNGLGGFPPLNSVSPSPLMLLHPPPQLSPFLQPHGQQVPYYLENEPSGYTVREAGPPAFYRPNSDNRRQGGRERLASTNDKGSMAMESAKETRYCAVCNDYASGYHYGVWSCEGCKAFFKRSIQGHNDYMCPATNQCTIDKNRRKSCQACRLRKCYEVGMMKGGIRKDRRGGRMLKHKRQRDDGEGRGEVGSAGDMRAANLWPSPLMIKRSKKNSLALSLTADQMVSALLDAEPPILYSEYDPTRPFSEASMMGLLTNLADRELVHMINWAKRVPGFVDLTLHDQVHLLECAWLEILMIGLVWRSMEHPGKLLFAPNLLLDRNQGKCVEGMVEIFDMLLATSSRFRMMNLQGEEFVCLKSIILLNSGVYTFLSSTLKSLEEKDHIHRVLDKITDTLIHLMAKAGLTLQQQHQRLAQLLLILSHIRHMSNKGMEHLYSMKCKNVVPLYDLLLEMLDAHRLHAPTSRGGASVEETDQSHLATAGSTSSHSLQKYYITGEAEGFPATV

Experiment [27] concerns the target T6, Estrogen receptor beta (Homo sapiens, UniProt Q92731).
The target in experiment [28] is T6, Estrogen receptor beta. Description: blockers of SRC-3 recruitment to ERβ – biochemical, ELISA, streptavidin-HRP readout, orthogonal assay, confirmation (AID 1060).
Experiment [29] deals with T7, E3 ubiquitin-protein ligase XIAP (Homo sapiens, UniProt P98170). Description: Counter Screen using XIAP-Bir3 for Chemical Antagonists of Bir1/2 domains of IAP-family anti-apoptotic proteins. [Related pubchem assays (depositor defined):AID1018, AID1449, AID1514, AID1638, AID1749, AID1750, AID488957, AID488963].
Experiment [30] addresses T7, E3 ubiquitin-protein ligase XIAP. Description: small molecules displacing peptide from XIAP – biochemical, IAP family, fluorescence polarization (AID 1018). Format: functional.
Experiment [31] addresses Epstein-Barr nuclear antigen 1 (Epstein-Barr virus (strain B95-8) (HHV-4) (Human herpesvirus 4), UniProt P03211). Description: inhibition of EBV nuclear antigen 1 DNA binding – biochemical, fluorescence polarization, 1536-well, dose response (AID 2381).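 Also: fluorescence polarization of a Cy5 DNA probe bound by EBNA-1 protein.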 Also on record: species or system human gammaherpesvirus 4.
Experiment [32] has as its target Lytic switch protein BZLF1 (Epstein-Barr virus (strain B95-8) (HHV-4) (Human herpesvirus 4), UniProt P03206). Description: inhibition of BZLF1 ZTA DNA binding – biochemical, fluorescence polarization, Epstein-Barr virus, 1536-well, counter-screen for EBNA-1 inhibitor project, dose response (AID 2377).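 Also: fluorescence polarization of Cy5-labelled ZRE DNA probe bound by purified Zta.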 Also noted: species or system human gammaherpesvirus 4.

Each structure is given as a SMILES string. Active and inactive are the calls of the source. Where only a bound is given, the exact number is not on record here.

T6 sequence (Q92731 whole entry): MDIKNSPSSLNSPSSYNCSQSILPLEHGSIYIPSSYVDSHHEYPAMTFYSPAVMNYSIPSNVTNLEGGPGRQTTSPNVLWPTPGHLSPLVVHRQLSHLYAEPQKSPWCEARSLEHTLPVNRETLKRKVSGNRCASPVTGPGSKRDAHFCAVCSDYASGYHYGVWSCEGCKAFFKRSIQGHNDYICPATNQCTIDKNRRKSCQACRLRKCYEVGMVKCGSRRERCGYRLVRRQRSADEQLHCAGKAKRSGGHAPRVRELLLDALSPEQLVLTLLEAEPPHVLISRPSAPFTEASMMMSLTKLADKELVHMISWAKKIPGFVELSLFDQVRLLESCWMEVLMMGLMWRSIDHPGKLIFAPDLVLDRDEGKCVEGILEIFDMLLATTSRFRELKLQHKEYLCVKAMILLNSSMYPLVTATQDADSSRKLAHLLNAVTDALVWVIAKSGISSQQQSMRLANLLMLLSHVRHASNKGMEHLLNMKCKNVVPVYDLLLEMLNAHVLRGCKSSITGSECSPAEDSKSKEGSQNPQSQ
T4 sequence (O95136 whole entry): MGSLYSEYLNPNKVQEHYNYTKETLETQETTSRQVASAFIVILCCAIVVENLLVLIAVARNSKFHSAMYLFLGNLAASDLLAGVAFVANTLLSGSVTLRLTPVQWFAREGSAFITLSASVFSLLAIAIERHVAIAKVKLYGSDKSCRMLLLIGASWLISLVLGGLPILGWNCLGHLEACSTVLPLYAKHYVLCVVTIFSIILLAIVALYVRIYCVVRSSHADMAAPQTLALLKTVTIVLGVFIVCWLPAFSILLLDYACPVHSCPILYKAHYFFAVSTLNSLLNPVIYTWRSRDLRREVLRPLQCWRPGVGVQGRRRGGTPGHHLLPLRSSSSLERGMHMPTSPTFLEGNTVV
T7 sequence (P98170 whole entry): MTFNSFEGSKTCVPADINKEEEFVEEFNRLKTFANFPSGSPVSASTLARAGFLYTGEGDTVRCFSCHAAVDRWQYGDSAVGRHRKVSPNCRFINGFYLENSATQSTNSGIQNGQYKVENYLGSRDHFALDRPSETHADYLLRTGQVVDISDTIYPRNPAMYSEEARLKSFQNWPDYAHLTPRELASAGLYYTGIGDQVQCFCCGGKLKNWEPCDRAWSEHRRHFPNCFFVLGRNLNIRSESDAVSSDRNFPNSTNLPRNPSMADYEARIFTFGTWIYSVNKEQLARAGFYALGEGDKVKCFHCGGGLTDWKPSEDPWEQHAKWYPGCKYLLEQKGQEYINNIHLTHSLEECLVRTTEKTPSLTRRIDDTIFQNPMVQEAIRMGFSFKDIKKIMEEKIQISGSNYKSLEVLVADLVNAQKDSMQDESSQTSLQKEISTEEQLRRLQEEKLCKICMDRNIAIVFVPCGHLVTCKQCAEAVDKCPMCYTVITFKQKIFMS
Sequence of Ion channel NompC (Q7T1G6 whole entry): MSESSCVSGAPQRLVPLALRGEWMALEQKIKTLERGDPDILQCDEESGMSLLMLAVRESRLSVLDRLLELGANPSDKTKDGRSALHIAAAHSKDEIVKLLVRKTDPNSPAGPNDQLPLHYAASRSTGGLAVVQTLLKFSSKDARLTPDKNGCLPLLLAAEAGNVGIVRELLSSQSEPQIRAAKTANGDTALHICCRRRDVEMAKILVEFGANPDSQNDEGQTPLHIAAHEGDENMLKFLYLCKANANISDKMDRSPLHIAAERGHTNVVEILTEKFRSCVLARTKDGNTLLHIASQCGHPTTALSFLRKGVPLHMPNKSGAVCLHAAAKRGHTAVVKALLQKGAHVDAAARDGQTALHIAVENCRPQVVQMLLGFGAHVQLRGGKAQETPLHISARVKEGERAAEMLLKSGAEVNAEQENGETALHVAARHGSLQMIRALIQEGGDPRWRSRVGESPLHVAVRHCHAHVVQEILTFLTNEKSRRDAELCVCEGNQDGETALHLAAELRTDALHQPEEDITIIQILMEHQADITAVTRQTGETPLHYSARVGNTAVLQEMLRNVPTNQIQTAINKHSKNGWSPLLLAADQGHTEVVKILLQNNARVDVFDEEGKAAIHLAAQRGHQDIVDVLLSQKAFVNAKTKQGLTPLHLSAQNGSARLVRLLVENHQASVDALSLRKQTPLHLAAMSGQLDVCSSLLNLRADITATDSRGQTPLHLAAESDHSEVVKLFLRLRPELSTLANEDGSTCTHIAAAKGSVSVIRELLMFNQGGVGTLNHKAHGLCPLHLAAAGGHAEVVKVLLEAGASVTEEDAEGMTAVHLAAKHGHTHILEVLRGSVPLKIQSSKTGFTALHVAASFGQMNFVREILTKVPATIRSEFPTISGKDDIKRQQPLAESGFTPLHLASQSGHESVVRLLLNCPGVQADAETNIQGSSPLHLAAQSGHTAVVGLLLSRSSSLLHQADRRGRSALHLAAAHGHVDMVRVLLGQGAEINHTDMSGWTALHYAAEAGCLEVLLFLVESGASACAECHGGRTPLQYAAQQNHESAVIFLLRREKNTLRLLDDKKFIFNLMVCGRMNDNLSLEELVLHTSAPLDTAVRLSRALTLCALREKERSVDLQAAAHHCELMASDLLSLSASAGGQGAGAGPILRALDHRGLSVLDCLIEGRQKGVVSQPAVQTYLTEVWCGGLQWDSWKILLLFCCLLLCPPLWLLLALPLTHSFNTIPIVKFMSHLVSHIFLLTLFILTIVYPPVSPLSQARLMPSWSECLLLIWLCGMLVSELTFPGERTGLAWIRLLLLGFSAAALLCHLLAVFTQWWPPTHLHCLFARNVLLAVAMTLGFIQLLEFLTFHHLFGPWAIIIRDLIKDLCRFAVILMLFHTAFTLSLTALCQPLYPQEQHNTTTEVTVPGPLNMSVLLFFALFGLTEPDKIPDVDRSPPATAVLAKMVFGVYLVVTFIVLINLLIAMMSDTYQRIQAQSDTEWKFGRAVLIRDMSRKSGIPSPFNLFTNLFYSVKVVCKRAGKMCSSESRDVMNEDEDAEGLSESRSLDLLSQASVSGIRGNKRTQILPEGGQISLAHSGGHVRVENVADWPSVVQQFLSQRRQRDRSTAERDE
Sequence of Induced myeloid leukemia cell differentiation protein Mcl-1 (Q07820 whole entry): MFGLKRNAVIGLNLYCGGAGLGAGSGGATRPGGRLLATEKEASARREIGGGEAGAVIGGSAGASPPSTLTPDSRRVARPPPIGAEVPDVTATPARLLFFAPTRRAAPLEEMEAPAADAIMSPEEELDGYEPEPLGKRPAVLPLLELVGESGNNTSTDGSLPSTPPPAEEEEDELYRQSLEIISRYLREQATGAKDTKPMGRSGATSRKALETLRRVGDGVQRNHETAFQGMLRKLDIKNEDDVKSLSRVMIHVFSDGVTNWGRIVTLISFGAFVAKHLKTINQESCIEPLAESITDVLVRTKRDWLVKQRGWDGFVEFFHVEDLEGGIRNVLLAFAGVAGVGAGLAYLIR
Sequence of Epstein-Barr nuclear antigen 1 (P03211 whole entry): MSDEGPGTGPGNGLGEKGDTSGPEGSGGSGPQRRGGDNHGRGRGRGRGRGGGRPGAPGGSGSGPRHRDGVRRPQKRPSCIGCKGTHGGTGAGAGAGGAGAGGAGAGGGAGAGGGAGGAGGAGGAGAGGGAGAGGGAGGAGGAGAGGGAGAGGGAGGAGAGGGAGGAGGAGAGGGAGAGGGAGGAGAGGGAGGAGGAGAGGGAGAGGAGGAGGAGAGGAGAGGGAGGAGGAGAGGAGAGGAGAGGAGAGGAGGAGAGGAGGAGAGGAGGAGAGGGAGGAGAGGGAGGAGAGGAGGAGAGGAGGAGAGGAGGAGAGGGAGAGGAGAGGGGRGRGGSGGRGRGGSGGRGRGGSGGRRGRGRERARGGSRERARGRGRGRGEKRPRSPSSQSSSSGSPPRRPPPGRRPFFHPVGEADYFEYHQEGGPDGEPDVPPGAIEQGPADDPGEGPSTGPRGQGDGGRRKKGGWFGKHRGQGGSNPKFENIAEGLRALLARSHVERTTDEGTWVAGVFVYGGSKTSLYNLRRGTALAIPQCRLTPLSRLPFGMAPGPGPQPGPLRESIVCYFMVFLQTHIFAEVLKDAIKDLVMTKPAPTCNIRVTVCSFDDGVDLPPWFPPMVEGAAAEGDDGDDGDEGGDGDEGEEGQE
Sequence of Bcl-2-like protein 1 (Q07817 whole entry): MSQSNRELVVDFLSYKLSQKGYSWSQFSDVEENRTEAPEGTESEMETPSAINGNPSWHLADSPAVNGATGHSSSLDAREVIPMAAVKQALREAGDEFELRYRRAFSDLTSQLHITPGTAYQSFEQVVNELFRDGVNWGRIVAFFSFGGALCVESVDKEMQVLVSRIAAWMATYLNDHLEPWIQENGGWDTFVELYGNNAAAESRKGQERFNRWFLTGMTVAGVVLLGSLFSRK
Sequence of Mucolipin-3 (Q8TDD5 whole entry): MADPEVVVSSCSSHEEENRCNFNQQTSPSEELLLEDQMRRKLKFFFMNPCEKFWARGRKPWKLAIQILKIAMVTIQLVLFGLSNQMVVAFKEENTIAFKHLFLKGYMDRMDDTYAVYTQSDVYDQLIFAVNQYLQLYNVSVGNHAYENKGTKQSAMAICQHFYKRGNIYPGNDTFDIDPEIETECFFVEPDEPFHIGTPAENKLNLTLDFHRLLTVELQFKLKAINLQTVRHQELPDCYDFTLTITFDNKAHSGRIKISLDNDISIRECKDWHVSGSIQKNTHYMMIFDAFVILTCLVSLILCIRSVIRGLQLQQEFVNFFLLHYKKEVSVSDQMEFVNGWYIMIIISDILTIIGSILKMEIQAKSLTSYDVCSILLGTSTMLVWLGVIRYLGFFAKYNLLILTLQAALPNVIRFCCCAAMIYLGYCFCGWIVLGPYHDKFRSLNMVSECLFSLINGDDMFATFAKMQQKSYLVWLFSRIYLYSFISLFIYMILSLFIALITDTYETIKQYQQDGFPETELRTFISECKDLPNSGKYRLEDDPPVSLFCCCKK
Sequence of Lytic switch protein BZLF1 (P03206 whole entry): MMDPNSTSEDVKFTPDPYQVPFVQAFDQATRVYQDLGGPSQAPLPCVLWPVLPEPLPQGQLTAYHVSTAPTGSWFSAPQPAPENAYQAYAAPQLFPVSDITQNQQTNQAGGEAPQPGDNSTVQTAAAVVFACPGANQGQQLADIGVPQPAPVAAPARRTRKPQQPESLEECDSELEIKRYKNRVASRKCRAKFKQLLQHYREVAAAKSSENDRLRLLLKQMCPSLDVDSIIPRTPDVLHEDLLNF

`C=CCc1cccc(/C=N/NC(=O)CNc2cccc3ccccc23)c1O`: the IC50 in experiment [1] and in experiment [3] was > 109 µM (not active) throughout. The values for the EC50 in [2] and in [4] were > 150 µM (inactive) and 3.28 µM (active), respectively.
Regarding `CCC(C)NC(=O)c1c(N)n(/N=C/c2ccccn2)c2nc3ccccc3nc12` (configuration not stated), the EC50 (commonly the midpoint of the concentration-response curve) is 32.3 µM (active) in [5]; 4.73 µM (active) in experiment [6]; 30.2 µM (active) in experiment [7]; 2.18 µM (active) in experiment [8]; 6.39 µM (active) in [9]; > 30 µM (not active) in experiment [10]. For the same molecule, the CC50 in experiment [11] is > 40 µM (active). For the same molecule, in experiment [12], the IC50 – broadly, the concentration needed to halve the response being measured – was 43.2 µM (inactive).
As for `COc1ccc(Oc2c(C)n[nH]c2-c2ccc(O)cc2O)cc1`, the IC50 is > 35 µM (not active) in [13], 47.4 µM (active) in [14] and > 35 µM (not active) in experiment [15].
As to `COc1ccc(C(N)=O)c(OCC(=O)c2cc(C)n(Cc3ccccc3)c2C)c1`, the EC50 in [16] is given as > 30 µM (not active).
Take `NC(=O)C1CCN(C(=O)c2cc(-c3ccccc3)on2)CC1`: the EC50 is given as > 10 µM (not active) in experiment [17], > 50 µM (not active) in [18] and > 50 µM (not active) in experiment [19].
Regarding `CN(C1CCCCC1)S(=O)(=O)c1cccc(C(=O)OCC(=O)NC2CCCc3ccccc32)c1` (configuration not stated), the EC50 in experiment [20] was 2.86 µM (active); in [21], > 29.9 µM (not active).
For the molecule `COc1cc2c(cc1OC)C(/C=C(\O)c1ccc(NC(C)=O)cc1)=NCC2`, the EC50 was 3.33 µM (active) in [22], > 112 µM (not active) in [23] and < 0.3 µM (active) in experiment [24].
Turning to `O=C(CCN1C(=O)/C(=C/c2ccccc2)SC1=S)Nc1ccccn1`, the IC50 in experiment [25] is > 100 µM (active).
With `Cc1cc(C)c(S(=O)(=O)/N=C2\C=CC(=O)C(Cl)=C2)c(C)c1`, the figures for the IC50 in [26], in experiment [27] and in [28] were 10.3 µM (active), 4.69 µM (active) and 16.5 µM (not active), respectively.
In the case of `COc1ccc(C(=O)C2=C(O)C(=O)N(CC3CCCO3)C2c2cccc(OC)c2)cc1` (configuration not stated), the IC50 in experiment [29] is > 100 µM (inactive); in experiment [30], > 100 µM (not active).
For `COc1ccc(CN=C(S)N2CCN(S(=O)(=O)c3cccc(F)c3)CC2)cc1`, the IC50 in experiment [31] is 5.94 µM (active); in experiment [32], > 111 µM (not active).
